# Reference: PubChem BioAssay AID330 (DTP/NCI, 2004)
# Several values for one entry are separate records, joined by “and”; a condition that tells them apart may be missing. Identical values can stand only once. Toxic doses and inconclusive results are not listed. Peptide text beside a SMILES is read from it.
# Tested on: P388 leukemia ip, CD2F1 mice, survival T/C
# Assay: NCI In Vivo Anticancer Drug Screen. Data for tumor model P388 Leukemia (intraperitoneal) in CD2F1 (CDF1) mice
# Details: endpoint: median survival time, higher = longer survival
# Procedure, shortened: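 Mice carrying the transplanted tumor received test compound or vehicle. Survival was recorded in each group, and the value is the treated-group measurement divided by that of the vehicle-treated control group.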
# [1] = dose: 100.0 mg/kg/injection, schedule: Q04DX003 (ip), vehicle: saline
# [2] = dose: 200.0 mg/kg/injection, schedule: Q04DX003 (ip), vehicle: saline
# [3] = dose: 60.0 mg/kg/injection, schedule: Q01DX005 (ip), vehicle: saline with Tween-80
# [4] = dose: 120.0 mg/kg/injection, schedule: Q01DX005 (ip), vehicle: saline with Tween-80
# [5] = dose: 50.0 mg/kg/injection, schedule: Q01DX005 (ip), vehicle: saline with Tween-80
# [6] = dose: 100.0 mg/kg/injection, schedule: Q01DX005 (ip), vehicle: saline with Tween-80
# [7] = dose: 200.0 mg/kg/injection, schedule: Q01DX005 (ip), vehicle: saline with Tween-80
# [8] = dose: 100.0 mg/kg/injection, schedule: Q01DX001 (ip), vehicle: Klucel (hydroxypropylcellulose) (HPC)
# [9] = dose: 200.0 mg/kg/injection, schedule: Q01DX001 (ip), vehicle: Klucel (hydroxypropylcellulose) (HPC)
# [10] = dose: 400.0 mg/kg/injection, schedule: Q01DX001 (ip), vehicle: Klucel (hydroxypropylcellulose) (HPC)
# [11] = dose: 50.0 mg/kg/injection, schedule: Q01DX009 (ip), vehicle: saline with Tween-80
# [12] = dose: 100.0 mg/kg/injection, schedule: Q01DX009 (ip), vehicle: saline with Tween-80
# [13] = dose: 50.0 mg/kg/injection, schedule: Q01DX009 (ip), vehicle: saline
# [14] = dose: 100.0 mg/kg/injection, schedule: Q01DX009 (ip), vehicle: saline
# [15] = dose: 200.0 mg/kg/injection, schedule: Q01DX009 (ip), vehicle: saline
# [16] = dose: 400.0 mg/kg/injection, schedule: Q04DX003 (ip), vehicle: saline
# [17] = dose: 25.0 mg/kg/injection, schedule: Q01DX009 (ip), vehicle: other
# [18] = dose: 50.0 mg/kg/injection, schedule: Q01DX009 (ip), vehicle: other
structure (smiles),measurement,setting,value
N#Cc1ccccc1N=NNc1ccc(-c2nc(N)nc(N)n2)cc1,T/C,"dose: 50.0 mg/kg/injection, schedule: Q04DX003 (ip), vehicle: saline",100 % of control
same,T/C,[1],95 % of control
same,T/C,[2],100 % of control
CCOC(=O)C1C(O)CC2c3ccccc3-c3ccccc3C21 (centres undefined),T/C,[3],87 % of control
same,T/C,[4],87 % of control
Cc1cccc(C)c1NC(=O)C1CN(c2c(C)cccc2C)C(=O)/C1=N\O (centres undefined),T/C,[5],111 % of control
same,T/C,[6],108 % of control
same,T/C,[7],103 % of control
O=C1c2ccccc2C(=O)c2c1ccc1nc(Cl)c(=O)[nH]c21,T/C,[3],94 % of control
same,T/C,[4],97 % of control
same,T/C,"dose: 240.0 mg/kg/injection, schedule: Q01DX005 (ip), vehicle: saline with Tween-80",94 % of control
Cn1c(=S)[nH]c2c(c1=O)CCCN2,T/C,[8],101 % of control
same,T/C,[9],99 % of control
same,T/C,[10],95 % of control
Cc1noc(NS(=O)(=O)c2ccc(N=Nc3cc(N=Nc4ccc(S(=O)(=O)Nc5onc(C)c5C)cc4)c4c(NC(=O)C(Cl)Cl)cccc4c3OC(=O)C(Cl)Cl)cc2)c1C (tested in a mixture with another compound),T/C,[11],100 % of control and 106 % of control
same,T/C,[12],104 % of control and 106 % of control
N#CC(C#N)C(c1ccccc1)c1cccc2ccccc12 (centres undefined),T/C,[8],101 % of control
same,T/C,[9],109 % of control
same,T/C,[10],104 % of control
CCNC(=O)Nc1ccc(Cl)cn1,T/C,[13],102 % of control
same,T/C,[14],105 % of control
same,T/C,[15],105 % of control
COC1=CC(=Nc2ccc(N(C)C)cc2)C=CC1=O,T/C,"dose: 3.12 mg/kg/injection, schedule: Q01DX005 (ip), vehicle: saline",106 % of control
same,T/C,"dose: 6.25 mg/kg/injection, schedule: Q01DX005 (ip), vehicle: saline",109 % of control
same,T/C,"dose: 12.5 mg/kg/injection, schedule: Q01DX005 (ip), vehicle: saline",106 % of control
CP1(=O)CCC23CCCCC21O3 (centres undefined),T/C,[13],104 % of control
same,T/C,[14],111 % of control
same,T/C,[15],95 % of control
O=C(Nc1nncs1)C(F)(F)F,T/C,"dose: 12.5 mg/kg/injection, schedule: Q01DX009 (ip), vehicle: distilled water + Tween-80",111 % of control
same,T/C,"dose: 12.5 mg/kg/injection, schedule: Q01DX009 (ip), vehicle: water",109 % of control
same,T/C,"dose: 25.0 mg/kg/injection, schedule: Q01DX009 (ip), vehicle: distilled water + Tween-80",118 % of control
same,T/C,"dose: 50.0 mg/kg/injection, schedule: Q01DX009 (ip), vehicle: distilled water + Tween-80",163 % of control
same,T/C,"dose: 50.0 mg/kg/injection, schedule: Q01DX009 (ip), vehicle: water",159 % of control
CCOC(=O)NC(NC(=O)OCC)c1ccc(OC)cc1,T/C,[1],100 % of control
same,T/C,[2],91 % of control
same,T/C,[16],94 % of control
CC(C)=CCC(OC1OC(CO)C(O)C(O)C1N)C1=CC(=O)c2c(O)ccc(O)c2C1=O (centres undefined),T/C,"dose: 2.5 mg/kg/injection, schedule: Q04DX002 (ip), vehicle: saline",103 % of control
same,T/C,"dose: 5.0 mg/kg/injection, schedule: Q04DX002 (ip), vehicle: saline",111 % of control
same,T/C,"dose: 10.0 mg/kg/injection, schedule: Q04DX002 (ip), vehicle: saline",114 % of control
same,T/C,"dose: 20.0 mg/kg/injection, schedule: Q04DX002 (ip), vehicle: saline",113 % of control
same,T/C,"dose: 40.0 mg/kg/injection, schedule: Q04DX002 (ip), vehicle: saline",111 % of control
COC(=O)C12C(=O)C(C(=O)OC)(C(c3ccccc3)=C1c1ccccc1)C1OC(=O)OC12 (centres undefined),T/C,[11],91 % of control
same,T/C,[12],86 % of control
CC(=O)NSCC(NC(=O)OC(C)(C)C)C(=O)O (centres undefined),T/C,[5],97 % of control
same,T/C,[6],102 % of control
same,T/C,[7],95 % of control
NCCNc1ccc(NCCN)c2c1C(=O)c1ccccc1C2=O,T/C,"dose: 0.78 mg/kg/injection, schedule: Q01DX009 (ip), vehicle: distilled water + alcohol",150 % of control
same,T/C,"dose: 2.0 mg/kg/injection, schedule: Q01DX009 (ip), vehicle: acid diluted with saline",185 % of control
same,T/C,"dose: 3.13 mg/kg/injection, schedule: Q01DX009 (ip), vehicle: distilled water + alcohol",107 % of control
same,T/C,"dose: 4.0 mg/kg/injection, schedule: Q01DX009 (ip), vehicle: acid diluted with saline",194 % of control
same,T/C,"dose: 6.25 mg/kg/injection, schedule: Q01DX009 (ip), vehicle: distilled water + alcohol",159 % of control
same,T/C,"dose: 8.0 mg/kg/injection, schedule: Q01DX009 (ip), vehicle: acid diluted with saline",203 % of control
same,T/C,"dose: 12.5 mg/kg/injection, schedule: Q01DX009 (ip), vehicle: distilled water + alcohol",174 % of control
same,T/C,"dose: 16.0 mg/kg/injection, schedule: Q01DX009 (ip), vehicle: acid diluted with saline",243 % of control
same,T/C,"dose: 25.0 mg/kg/injection, schedule: Q01DX009 (ip), vehicle: distilled water + alcohol",215 % of control
same,T/C,[17],158 % of control
O=C(OCc1ccccc1)c1ccc(=O)oc1,T/C,"dose: 100.0 mg/kg/injection, schedule: Q04DX003 (ip), vehicle: Klucel (hydroxypropylcellulose) (HPC)",114 % of control
same,T/C,"dose: 200.0 mg/kg/injection, schedule: Q04DX003 (ip), vehicle: Klucel (hydroxypropylcellulose) (HPC)",110 % of control
Nc1ccc2nc3cc(Nc4ccccc4)c(=Nc4ccccc4)cc-3n(-c3ccccc3)c2c1,T/C,[5],100 % of control
same,T/C,[6],98 % of control
same,T/C,[7],93 % of control
Cc1[nH]c(=O)[nH]c(=O)c1/C=C/C(=O)NC(CO)CSC(C)C (centres undefined),T/C,[18],86 % of control
same,T/C,"dose: 200.0 mg/kg/injection, schedule: Q01DX009 (ip), vehicle: other",90 % of control
same,T/C,"dose: 400.0 mg/kg/injection, schedule: Q01DX009 (ip), vehicle: other",89 % of control
O=C(OCCN1C(=O)C2C3C=CC(C3)C2C1=O)C1C2C=CC(C2)C1C(=O)OCCN1C(=O)C2C3C=CC(C3)C2C1=O (centres undefined),T/C,"dose: 50.0 mg/kg/injection, schedule: Q01DX005 (ip), vehicle: saline + Tween-80 + alcohol",100 % of control
same,T/C,"dose: 100.0 mg/kg/injection, schedule: Q01DX005 (ip), vehicle: saline + Tween-80 + alcohol",105 % of control
same,T/C,"dose: 200.0 mg/kg/injection, schedule: Q01DX005 (ip), vehicle: saline + Tween-80 + alcohol",105 % of control
CCOC(=O)c1cnc(Sc2ncccc2[N+](=O)[O-])nc1N,T/C,[1],95 % of control
same,T/C,[2],98 % of control
same,T/C,[16],92 % of control
S=c1cc[nH]c2ccccc12,T/C,"dose: 6.25 mg/kg/injection, schedule: Q01DX009 (ip), vehicle: other",104 % of control
same,T/C,"dose: 12.5 mg/kg/injection, schedule: Q01DX009 (ip), vehicle: other",104 % of control
same,T/C,[17],96 % of control
same,T/C,[18],112 % of control
same,T/C,"dose: 100.0 mg/kg/injection, schedule: Q01DX009 (ip), vehicle: other",110 % of control
CC(C)C(NC(=O)C(N)CCCCN)C(=O)O (stereo not drawn) (H-Lys-Val-OH; configuration not given here),T/C,[1],96 % of control
same,T/C,[2],97 % of control
same,T/C,[16],97 % of control
N#Cc1cc(C23CCC(C2)N3)ccc1[N+](=O)[O-] (centres undefined),T/C,[1],105 % of control
same,T/C,[2],91 % of control
same,T/C,[16],92 % of control
CC12C=C3CC(OC(=O)c4ccccc4)CCC3(O1)c1ccccc12 (centres undefined),T/C,"dose: 25.0 mg/kg/injection, schedule: Q01DX009 (ip), vehicle: saline with Tween-80",99 % of control
same,T/C,[11],105 % of control
same,T/C,[12],95 % of control
COc1cc2c(c(OC)c1OC)-c1ccc(=O)c(OC)cc1[C@@H](N(C)C)CC2,T/C,"dose: 2.5 mg/kg/injection, schedule: Q01DX009 (ip), vehicle: Klucel (hydroxypropylcellulose) (HPC)",100 % of control
same,T/C,"dose: 5.0 mg/kg/injection, schedule: Q01DX009 (ip), vehicle: Klucel (hydroxypropylcellulose) (HPC)",106 % of control
same,T/C,"dose: 10.0 mg/kg/injection, schedule: Q01DX009 (ip), vehicle: Klucel (hydroxypropylcellulose) (HPC)",107 % of control
same,T/C,"dose: 20.0 mg/kg/injection, schedule: Q01DX009 (ip), vehicle: Klucel (hydroxypropylcellulose) (HPC)",110 % of control
same,T/C,"dose: 40.0 mg/kg/injection, schedule: Q01DX009 (ip), vehicle: Klucel (hydroxypropylcellulose) (HPC)",110 % of control
